Data: US20250127759A1, “METHODS AND DOSING REGIMENS COMPRISING A CDK2 INHIBITOR FOR THE TREATMENT OF CANCER” (PFIZER INC., priority 2021, published 2025)
Several values for one entry are separate records, joined by “and”; a condition that tells them apart may be missing. Equal values may be shown once. Read-outs that look alike come from different tables or passages of the source.

Tests used:
OVCAR3 cells = assay: Cell cycle distribution and DNA synthesis, OVCAR3; format: cell-based; conditions: 72-hour treatment with 300 nM
Protocol: The effect of PF-07104091 on cell cycle distribution and DNA synthesis was determined following 72-hour treatment with 300 nM PF-07104091.

[1] = In vivo efficacy, MCF7 breast cancer model; conditions: female, mouse, NSG mice, po, BID, read-out: maximum tolerated dose level
Protocol: Female NSG (Jackson Lab) or Nu/nu (CRL) were subcutaneously implanted with tumor cells or fragments (8 mm^3 to 27 mm^3) into the dorsal region. For the MCF7 study, mice were supplemented with estrogen (sc implanted, 17β-estradiol, 0.36 mg, 90-day release pellet, Innovative Research of America, cat no. NE-121).
The MCF7 model was established by implanting donor tumor fragments into recipient mice. To establish the MCF7 donor mice, tumor cells (5×10^6 cells/mouse with 50% Cultrex® Basement Membrane Matrix) were subcutaneously implanted in female NSG mice. […] 150 mg/kg, po, BID is the maximum tolerated dose level in this model. PF 07104091 was administered (p.o.) BID (7 hr apart). TGI was assessed on Day 21 post first dose (or Day 42 post tumor fragment implant).

[2] = Phase 1/2a study, plasma pharmacokinetics of PF-07104091; format: in vivo, human
Text: Blood samples will be collected for measurement of plasma concentrations of PF-07104091 as specified in the protocol. Samples will be used to evaluate the PK of PF-07104091. Samples collected for analyses of PF-07104091 plasma concentration may also be used to evaluate safety or efficacy aspects related to concerns arising during or after the study, for metabolite identification and/or evaluation of the bioanalytical method, or for other internal exploratory purposes.
Plasma PF-07104091 concentrations will be summarized descriptively (n, mean, standard deviation, coefficient of variation, median, minimum, maximum, geometric mean and its associated coefficient of variation) by dose, cycle, day and nominal time. Individual participant plasma PF-07104091 concentration-time data within a dose interval (with exception of the food effect substudy) after Cycle 1 Day 1 and Cycle 1 Day 15 will be analyzed using noncompartmental methods to determine single and multiple dose PK parameters. For participants in the food effect substudy, individual plasma PF-07104091 concentration-time data after Cycle 1 Day 15 and Cycle 1 Day 16 will be analyzed using noncompartmental methods to determine multiple dose PK parameters. For Part 1 of the study, single dose PK parameters to be estimated will include the Cmax, Tmax, and AUClast, and if data permit, t1/2, CL/F, and Vz/F. Multiple dose PK parameters to be estimated will include Cmax,ss, Tmax,ss, AUCT,ss, Cmin,ss, CL/F,ss, and if data permit, V/Fss, t1/2, and Rac. For Part 2 of the study (with exception of the food effect substudy), single dose PK parameters to be estimated will include Cmax, Tmax and AUClast. Multiple dose PK parameters to be estimated will include Cmax,ss, Tmax,ss, AUClast, Cmin,ss, and Rac. The single dose and steady state PK parameters will be summarized descriptively (n, mean, standard deviation, coefficient of variation, median, minimum, maximum, geometric mean and its associated coefficient of variation) by dose level, cycle and day. For participants in the food effect substudy, multiple dose PK parameters to be estimated will include Cmax,ss, AUCT,ss, Tmax,ss, Cmin,ss, CL/Fss, and if data permit, V/Fss and t1/2.
An ongoing Phase 1/2a, open-label, multicenter, multiple dose study is being conducted to determine the safety, tolerability, PK, PD, and preliminary anti-tumor activity of PF-07104091 as a single agent and in combination with endocrine therapy. PF-07104091 is administered orally twice daily (BID) during 28-day cycles.
Preliminary concentration-time data of PF-07104091 following single and multiple oral administration at 75 mg BID to 500 mg BID as monotherapy or in combination with endocrine therapy alone or in combination with palbociclib and endocrine therapy were available from 44 participants with advanced solid tumors and HR-positive HER2-negative advanced or metastatic breast cancer. The preliminary concentration-time data were analyzed by noncompartmental approach using actual PK sampling times.
[…] Individual values are listed when the number of participants with available parameters is less than 3.

[3] = Cycle 1 Day 1, single oral dose, 375 mg BID monotherapy, individual values
[4] = Cycle 1 Day 15, repeated BID oral, 75 mg BID monotherapy, individual values

COCc1cc(C(=O)Nc2cc([C@H]3CC[C@@H](OC(=O)NC(C)C)C3)[nH]n2)n(C)n1 [PF-07104091, (1R,3S)-3-[3-({[3-(methoxymethyl)-1-methyl-1H-pyrazol-5-yl]carbonyl}amino)-1H-pyrazol-5-yl]cyclopentyl propan-2-ylcarbamate]
cell cycle arrest (OVCAR3 cells): Significant G1 arrest
S phase (cell cycle distribution) (OVCAR3 cells; p≤0.05 versus vehicle): Significant S phase reduction
MTD at 21 days [1]: 150 mg/kg
AUClast [2, 3]: 14424 ng·h/mL
Cmax [2, 3]: 2890 ng/mL
Tmax [2, 3]: 4.0, 4.0 h
Rac ([2]; Cycle 1 Day 15, repeated BID oral, 75 mg BID (1B), with palbociclib and fulvestrant, arithmetic mean ± SD): 1.2 ± 0.1
AUClast [2, 4]: 2321, ng*h/mL
Cmax [2, 4]: 398, ng/mL
Rac [2, 4]: 1.4 and 2.7
Rac ([2]; Cycle 1 Day 15, repeated BID oral, 150 mg BID monotherapy, arithmetic mean ± SD): 1.8 ± 0.2
Rac ([2]; Cycle 1 Day 15, repeated BID oral, 225 mg BID monotherapy, arithmetic mean ± SD): 1.8 ± 0.7
Rac ([2]; Cycle 1 Day 15, repeated BID oral, 300 mg BID monotherapy, arithmetic mean ± SD): 1.9 ± 1.1
Rac ([2]; Cycle 1 Day 15, repeated BID oral, 500 mg BID monotherapy, individual value, N = 1): 1.1
accumulation ([2]; following repeated BID administration): moderate accumulation
half-life ([2]; human, plasma, po, 75 mg BID to 500 mg BID, read-out: average half-life (converted)): ~2 h
half-life ([2]; human, plasma, po, 75 mg, Cycle 1 Day 1, single oral dose, 75 mg BID (1B), with palbociclib and fulvestrant, arithmetic mean ± SD, read-out: t1/2 (converted)): 1.9 ± 0.2 h
AUC(0-t) ([2]; human, plasma, po, 75 mg, Cycle 1 Day 1, single oral dose, 75 mg BID (1B), with palbociclib and fulvestrant, geometric mean (CV %)): 2760 ng·h/mL
Cmax ([2]; human, plasma, po, 75 mg, Cycle 1 Day 1, single oral dose, 75 mg BID (1B), with palbociclib and fulvestrant, geometric mean (CV %), read-out: Cmax): 694 ng/mL
Tmax ([2]; human, plasma, po, 75 mg, Cycle 1 Day 1, single oral dose, 75 mg BID (1B), with palbociclib and fulvestrant, median (range), read-out: Tmax): 1.6 h
half-life ([2]; human, plasma, po, 75 mg, Cycle 1 Day 1, single oral dose, 75 mg BID (1C), with palbociclib and letrozole, arithmetic mean ± SD, read-out: t1/2 (converted)): 1.6 ± 0.5 h
AUC(0-t) ([2]; human, plasma, po, 75 mg, Cycle 1 Day 1, single oral dose, 75 mg BID (1C), with palbociclib and letrozole, geometric mean (CV %)): 2460 ng·h/mL
Cmax ([2]; human, plasma, po, 75 mg, Cycle 1 Day 1, single oral dose, 75 mg BID (1C), with palbociclib and letrozole, geometric mean (CV %), read-out: Cmax): 648 ng/mL
Tmax ([2]; human, plasma, po, 75 mg, Cycle 1 Day 1, single oral dose, 75 mg BID (1C), with palbociclib and letrozole, median (range), read-out: Tmax): 0.5 h
half-life ([2]; human, plasma, po, 75 mg, Cycle 1 Day 1, single oral dose, 75 mg BID monotherapy, arithmetic mean ± SD, read-out: t1/2 (converted)): 2.4 ± 0.7 h
AUC(0-t) ([2]; human, plasma, po, 75 mg, Cycle 1 Day 1, single oral dose, 75 mg BID monotherapy, geometric mean (CV %)): 1750 ng·h/mL
Cmax ([2]; human, plasma, po, 75 mg, Cycle 1 Day 1, single oral dose, 75 mg BID monotherapy, geometric mean (CV %), read-out: Cmax): 362 ng/mL
Tmax ([2]; human, plasma, po, 75 mg, Cycle 1 Day 1, single oral dose, 75 mg BID monotherapy, median (range), read-out: Tmax): 2 h
half-life ([2]; human, plasma, po, 75 mg, Cycle 1 Day 15, repeated BID oral, 75 mg BID (1B), with palbociclib and fulvestrant, arithmetic mean ± SD, read-out: t1/2 (converted)): 3.6 ± 0.9 h
AUC(0-t) ([2]; human, plasma, po, 75 mg, Cycle 1 Day 15, repeated BID oral, 75 mg BID (1B), with palbociclib and fulvestrant, geometric mean (CV %)): 3080 ng·h/mL
Cmax ([2]; human, plasma, po, 75 mg, Cycle 1 Day 15, repeated BID oral, 75 mg BID (1B), with palbociclib and fulvestrant, geometric mean (CV %), read-out: Cmax): 698 ng/mL
Tmax ([2]; human, plasma, po, 75 mg, Cycle 1 Day 15, repeated BID oral, 75 mg BID (1B), with palbociclib and fulvestrant, median (range), read-out: Tmax): 1.2 h
AUC(0-t) ([2]; human, plasma, po, 75 mg, Cycle 1 Day 15, repeated BID oral, 75 mg BID monotherapy, individual values): 3580 ng·h/mL
Cmax ([2]; human, plasma, po, 75 mg, Cycle 1 Day 15, repeated BID oral, 75 mg BID monotherapy, individual values, read-out: Cmax): 714 ng/mL
Tmax ([2]; human, plasma, po, 75 mg, Cycle 1 Day 15, repeated BID oral, 75 mg BID monotherapy, individual values, read-out: Tmax): 1.1 h
